Results on seven compounds are retold here after patent US8410130B2, “Synthesis of 8H-3A-aza-cyclopenta [A ]indenes and 5,10-dihydropyrrolo[1,2-B]isoquinolines derivatives and their use as antitumor therapeutic agents” (Academia Sinica, priority 2007, dated 2013).

Like-named read-outs stand apart in the source and are kept apart here.

For assay [1], the system named is CCRF-CEM human lymphoblastic leukemia cells. The experiment in a line: In vitro cytotoxicity, XTT assay, 72-hr incubation. In kind it is cell-based. The source says: (§1) Human colon carcinoma HCT-116 cells, human prostate adenocarcinoma PC-3 and adenocarcinoma SK-OV-3 cells were obtained from American Type Culture Collection (ATCC, Rockville, Md.). Human mammary carcinoma (MX-1) tumor cells were obtained from MSKCC cell bank. The CCRF-CEM human lymphoblastic leukemia cells and their vinblastine resistant subline (CCRF-CEM/VBL, 680-fold resistance in vitro) were obtained from Dr. William Beck of the University of Illinois, Chicago, and CCRF-CEM/Taxol (330-fold resistance in vitro). Resistant cells CCRF-CEM/taxol were produced by exposing the parent cells to increasing sublethal concentration (IC50-IC90) of paclitaxel for six months.
(§2) In preparation for in vitro cytotoxicity assays, cells were cultured at an initial density 2-5×10^4 cells per milliliter. They were maintained in a 5% CO2-humidified atmosphere at 37° C. in RPMI medium 1640 (GIBCO/BRL) containing penicillin (100 units/mL), streptomycin (100 μg/mL, GIBCO/BRL), and 5% heat-inactivated FBS. For cells grown in suspension (such as CCRF-CEM and its sublines), cytotoxicity was measured, by using XTT microculture method in 96-well microtiter plates (Scudiero D A et al., Cancer Res. 1988, 48, 4827-4833). For solid tumor cells growing in a monolayer (such as MX-1 and HCT-116), cytotoxicity of the drug was determined, in duplicate, in 96-well microtiter plates by using the sulforhodamine B method (Skehan P et al., J. Natl. Cancer Inst 1990, 82, 1107-1112). For both methods, the absorbance of each well was measured with a microplate reader (Power Wave XS, Bio-Tek, Winooski, Vt.) after 72-hr incubation as described previously (Chou T-C et al., Proc. Natl. Acad. Sci. USA 2001, 98, 8113-8118). Dose-effect relationship data from 6 to 7 concentrations of each drug, in duplicate, were analyzed by using a computer program (Chou T-C et al., ComboSyn, Inc., Paramus, N J. 2005) based on the median-effect principle and plot (Chou T-C et al., Adv. Enzyme Regul. 1984, 22, 27-55; Chou T-C, Pharmacol. Rev. 2006, 58, 621-681).
(§3) The IC50 is defined by the concentration required to inhibit tumor cell growth by 50%. […] The growth inhibition of the compounds disclosed herein against human lymphoblastic leukemic cells (CCRF-CEM) and its drug-resistant sublines (resistant to vinblastine and taxol, CCRF-CEM/VBL and CCRF-CEM/taxol, respectively) is also shown in Table 5. […] Thus, the compounds disclosed herein are effective against multiple drug resistant tumors.

In assay [2] the test system is Human colon carcinoma HCT-116 cells. The experiment in a line: In vitro cytotoxicity, sulforhodamine B (SRB) assay. It counts as cell-based.
From the text: as §1, §2, §3

Assay [3] relates to Human mammary carcinoma (MX-1) tumor cells. Described as above. Conditions: 72-hr incubation. In kind it is cell-based.
From the text: as §1, §2, §3

A further assay concerns CCRF-CEM/Taxol. The experiment in a line: In vitro cytotoxicity, XTT assay, taxol resistant subline. It counts as cell-based, human. As to conditions: for IC50: XTT assay, 72-hr incubation; for fold of cross-resistant, CCRF-CEM/Taxol vs IC50 of the parent cell line: numbers in brackets.
From the text: as §1, §2, §3

In the next assay the test system is CCRF-CEM/VBL. The experiment in a line: In vitro cytotoxicity, XTT assay, vinblastine resistant subline. In kind it is cell-based, human. Conditions: for IC50: XTT assay, 72-hr incubation; for fold of cross-resistant, CCRF-CEM/VBL vs IC50 of the parent cell line: numbers in brackets.
From the text: as §1, §2, §3

Where [4] appears, read: Homo sapiens, HCT-116, 72-hr incubation.

For `CNC(=O)OCc1c(COC(=O)NC)c(-c2ccc(OC)cc2)n2c1Cc1ccccc1C2` [DA-1109, methylcarbamic acid 3-(4-methoxyphenyl)-2-methylcarbamoyloxymethyl-5,10-dihydr-pyrrolo[1,2-b]isoquinolin-1-ylmethyl ester], the concentration for half-maximal inhibition (IC50) in assay [1] is 184 nM; in assay [2] (72-hr incubation), 1110 nM; in assay [3], 1310 nM; in the assay on CCRF-CEM/Taxol, 161 nM; in the assay with CCRF-CEM/VBL it was 111 nM. Further, the “fold of cross-resistant, CCRF-CEM/Taxol vs IC50 of the parent cell line” value (“fold of cross-resistant, CCRF-CEM/Taxol” for short) in the assay with CCRF-CEM/Taxol is “[0.88x]”. The “fold of cross-resistant, CCRF-CEM/VBL vs IC50 of the parent cell line” value (“fold of cross-resistant, CCRF-CEM/VBL” below) in the assay on CCRF-CEM/VBL is “[0.60x]”.
With `OCc1c(CO)c(-c2ccc(F)c(F)c2)n2c1Cc1ccccc1C2` [DA-1112, [3-(3,4-Difluorophenyl)-2-hydroxymethyl-5,10-dihydropyrrolo[1,2-b]isoquinolin-1-yl]methanol], the IC50 in assay [1] (Homo sapiens, CCRF-CEM) was 1140 nM; in assay [2] (setting [4]) it was 2920 nM; in assay [3] (Homo sapiens) it was 6670 nM; in the assay on CCRF-CEM/Taxol (Homo sapiens, CCRF-CEM) it was 745 nM; in the assay with CCRF-CEM/VBL (Homo sapiens, CCRF-CEM), 1010 nM. Besides, the “fold of cross-resistant, CCRF-CEM/Taxol” value in the assay on CCRF-CEM/Taxol is “[0.66x]”. In the assay with CCRF-CEM/VBL, the “fold of cross-resistant, CCRF-CEM/VBL” value was “[0.89x]”.
As to `CNC(=O)OCc1c(COC(=O)NC)c(-c2ccc(F)c(F)c2)n2c1Cc1ccccc1C2` [DA-1113, methylcarbamic acid 3-(3,4-difluorophenyl)-2-methylcarbamoyloxymethyl-5,10-dihydropyrrolo[1,2-b]isoquinolin-1-methyl ester], the IC50 in assay [1] came to 488 nM; in assay [2] (72-hr incubation), 358 nM; in assay [3], 2710 nM; in the assay on CCRF-CEM/Taxol, 643 nM; in the assay with CCRF-CEM/VBL, 519 nM. In the assay with CCRF-CEM/Taxol, the “fold of cross-resistant, CCRF-CEM/Taxol” value is “[1.32x]”. For the same compound, the “fold of cross-resistant, CCRF-CEM/VBL” value in the assay on CCRF-CEM/VBL was “[1.06x]”.
As to `OCc1c(CO)c(-c2ccc(Cl)cc2)n2c1Cc1ccccc1C2` [DA-1116, [3-(4-Chlorophenyl)-2-hydroxymethyl-5,10-dihydropyrrolo[1,2-b]isoquinolin-1-yl]methanol], the IC50 turned out to be 600 nM in assay [1] (Homo sapiens, CCRF-CEM); 2640 nM in assay [2] (setting [4]); 3270 nM in assay [3] (Homo sapiens); 601 nM in the assay on CCRF-CEM/Taxol (Homo sapiens, CCRF-CEM); 543 nM in the assay with CCRF-CEM/VBL (Homo sapiens, CCRF-CEM). In addition, the “fold of cross-resistant, CCRF-CEM/Taxol” value in the assay with CCRF-CEM/Taxol is “[1.00x]”. Moreover, the “fold of cross-resistant, CCRF-CEM/VBL” value with CCRF-CEM/VBL is “[0.91x]”.
`CNC(=O)OCc1c(COC(=O)NC)c(-c2ccc(Cl)cc2)n2c1Cc1ccccc1C2` [DA-1117, methylcarbamic acid 3-(4-chlorphenyl)-2-methylcarbamoyloxymethyl-5,10-dihydropyrrolo[1,2-b]isoquinolin-1-ylmethyl ester]: the IC50 in assay [1] turned out to be 191 nM; in assay [2] (72-hr incubation), 356 nM; in assay [3] it was 1170 nM; in the assay on CCRF-CEM/Taxol, 216 nM; in the assay with CCRF-CEM/VBL, 208 nM. Further, in the assay on CCRF-CEM/Taxol, the “fold of cross-resistant, CCRF-CEM/Taxol” value is “[1.13x]”. The “fold of cross-resistant, CCRF-CEM/VBL” value in the assay on CCRF-CEM/VBL was “[1.09x]”.
With `COc1ccccc1-c1c(CO)c(CO)c2n1-c1ccccc1C2` [DA-1123, (2-Hydroxymethyl-3-(2-methoxyphenyl)-8H-3a-aza-cyclopenta[a]inden-1-yl)methanol], the IC50 in assay [1] (Homo sapiens, CCRF-CEM) was found to be 1010 nM; in assay [2] (setting [4]), 13400 nM; in assay [3] (Homo sapiens), 8640 nM; with CCRF-CEM/Taxol (Homo sapiens, CCRF-CEM), 2680 nM; in the assay on CCRF-CEM/VBL (Homo sapiens, CCRF-CEM), 1900 nM. The “fold of cross-resistant, CCRF-CEM/Taxol” value with CCRF-CEM/Taxol is “[2.68x]”. Besides, in the assay with CCRF-CEM/VBL, the “fold of cross-resistant, CCRF-CEM/VBL” value was “[1.89x]”.
In the case of `CNC(=O)OCc1c(COC(=O)NC)c(-c2ccc(OC)c(OC)c2)n2c1Cc1ccccc1-2` [DA-1125, Methylcarbamic acid 3-(3,4-dimethoxyphenyl)-2-methylcarbamoyloxymethyl-8H-3a-aza-cyclopenta[a]inden-1-ylmethyl ester], the IC50 in assay [1] (Homo sapiens, CCRF-CEM) was determined as 350 nM; in assay [2] (setting [4]) it was 680 nM; in assay [3] (Homo sapiens), 1840 nM; in the assay on CCRF-CEM/Taxol (Homo sapiens, CCRF-CEM), 497 nM; in the assay on CCRF-CEM/VBL (Homo sapiens, CCRF-CEM) it was 374 nM. Besides, in the assay with CCRF-CEM/Taxol, the “fold of cross-resistant, CCRF-CEM/Taxol” value was “[1.42x]”. Further, the “fold of cross-resistant, CCRF-CEM/VBL” value in the assay on CCRF-CEM/VBL is “[1.07x]”.
